Read-outs that look alike come from different tables or passages of the source.
Experiments:
[1] = assay type: in vivo; settings: for Duration of release from the ring: delayed release ring
Description: The rate of hydration of the intravaginal device depends on many factors, including the rate of water penetration into the polymer. The rate of water penetration can be modulated by the osmotic pressure within the polymer. The osmotic pressure can be modulated by adding salt (NaCl, KCl, etc) to the formulation of the drug.
Estradiol and GnRH can be formulated as described herein. Yet, additional salt is added (300 mmol).

[2] = endogenous, normal menstrual cycle, cited from earlier work; for Tmax: phase of cycle
[3] = estradiol administered at 100 μg/day; cited from earlier work
[4] = Expected characteristics of Ring A / Ring B formulations (Table II); assay type: in vivo; settings: 21 days of release
Source text: In an alternate embodiment of this aspect of the invention, the two formulations described above (the LHRH/estrogenic steroid formulation and LHRH/estrogenic/progestational steroid formulation) are combined in one drug delivery device, which is designed to remain in the vagina of the female for the entire menstrual cycle. In this embodiment, the drug delivery device comprises at least one cylindrical unitary segment per hormonal formulation, or, alternatively, at least one cylindrical unitary segment per active ingredient (i.e., LHRH, sex steroid, or sex steroid modulator). The choice of polymeric material and the ratio of polymeric material to LHRH/sex steroid/sex steroid modulator are preselected for each segment to provide the appropriate release kinetics for the individual steroids and/or steroidal formulations. By selecting the polymeric material based on its release properties and adjusting the ratio of polymeric material to drug, the method of the present invention provides the pre-set timed delivery of LHRH, estrogenic steroid, and progestational steroid at the appropriate phase of the menstrual cycle to achieve the desired contraceptive effect. For example, this “combined” device would release LHRH and/or its agonists or antagonists continuously for 30 days in combination with an estrogenic compound.

[5] = Effect of cellulosics (Methocel) on in vitro release from EVA (Example 5); assay type: physicochemical; settings: EVA with 5% or 25% Methocel, PBS pH 6.10:ethanol 70:30, 37° C.
Source text: Also, varying amounts of a commercially available cellulosic, Methocel® (Dow Chemicals, Co., Midland, Mich.) were incorporated into the mixtures to evaluate the effect of cellulosics on release kinetics. […] The solutions were slowly emulsified into a methylene chloride solution containing EVA. The resulting emulsions were solvent-casted into a mold, which was then cooled on dry ice. Following sublimation, the […] were cut into 1 cm×1 cm samples, and placed in scintillation vials, to which 0.1 M phosphate buffered saline (pH 6.10) and ethanol were added in a 70:30 ratio. The vials were placed in a 37° C. incubator on a shaker rotating at 100 RPM. The buffer solution was replaced at predetermined time points. […] Next, the release kinetics were determined by plotting the cumulative release amounts as a function of time.

[6] = In vitro release from double-sided EVA disc (Example 6); assay type: physicochemical; settings: 70:30 PBS:EtOH pH 6, 37° C.
Description: Also, the EVA/drug mixtures were combined to form a double-sided disc, comprising estradiol on one side and progesterone on the other. After drying, the discs were evaluated for their release kinetics. […] At the indicated time points, 100% of the media was collected for measurement and 100 ml of release media was replaced. The media was measured by an Agilent 1100 Series HPLC (Agilent). […] Results were calculated based on the area under the curve compared to a 5 point calibration curve and depicted in FIG. 7 as the cumulative percent released.

[7] = assay type: physicochemical; settings: for In vitro release kinetics: EVA ring, 70:30 PBS:EtOH pH 6, 37° C., 14 to 21 day period
Description: At the indicated time points media was collected and measured by HPLC on an Agilent 1100 Series HPLC (Agilent, Forest City, Calif.). […] Results were calculated based on the area under the curve compared to a 5 point calibration curve. Results were expressed as the cumulative release in μg released over the course of the experiment.

[8] = test system: endogenous luteinizing hormone (LH); assay: Intravaginal administration of GnRH/hydrogel to Rhesus monkeys, serum endogenous LH (Example 7); assay type: in vivo; settings: 10 mg GnRH in 2 g hydrogel, 48 hours

Molecule | Duration of release from the ring [1] [days] | Cmax [2] [ng/mL] | Steady State Serum Concentration [2] [pg/mL] | Tmax [2] | Serum level produced [3] | Drug Circulation Level ([4]; Ring A) [pg/mL] | Drug Circulation Level ([4]; Ring B) [pg/mL] | In vitro release kinetics with addition of Methocel [5] | In vitro release kinetics [6] | T1/2 [2] [h] | In vitro release kinetics [7] | Time after which release begins ([1]; segment without salt) [days] | Effect on endogenous LH levels [8] | Serum level in the circulation that the delivery rates are capable of producing [7] [ng/mL] | Time for which the ring sustains adequate flux rates ([7]; not told)
CCNC(=O)[C@@H]1CCCN1C(=O)[C@H](CCCNC(=N)N)NC(=O)[C@H](CC(C)C)NC(=O)[C@@H](Cc1c[nH]c2ccccc12)NC(=O)[C@H](Cc1ccc(O)cc1)NC(=O)[C@H](CO)NC(=O)[C@H](Cc1c[nH]c2ccccc12)NC(=O)[C@H](Cc1c[nH]cn1)NC(=O)[C@@H]1CCC(=O)N1 [D-Trp6-Pro9-Net-GnRH] | 28 |  |  |  |  |  |  |  |  |  |  |  |  |  | 
C[C@]12CC[C@@H]3c4ccc(O)cc4CC[C@H]3[C@@H]1CC[C@@H]2O [Estradiol, estradiol] |  | 0.5 | 50 to 500 | Midcycle | approximately 100 pg/ml | 100 | 100 |  |  |  |  |  |  |  | 
CC(=O)[C@H]1CC[C@H]2[C@@H]3CCC4=CC(=O)CC[C@]4(C)[C@H]3CC[C@]12C [Progesterone, progesterone] | 4 | 35 | 2000 to 6000 | Midluteal |  |  | 6000 | pseudo zero order release kinetics | independent bi-phasic release kinetics | 12 | stable zero order release kinetics | 14 |  |  | 
p-Glu-His-Trp-Ser-Tyr-Gly-Leu-Arg-Pro-Gly-NH2 [GnRH] |  |  |  |  |  |  |  |  |  |  | stable zero order release kinetics |  | produces elevated levels of endogenous LH | 3 to 6 | at least 21 days

Reference: patent US20080286339A1, “METHODS AND DEVICES FOR THE SUSTAINED RELEASE OF MULTIPLE DRUGS” (priority 2003, published 2008)
